From PubChem BioAssay (NCI)
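All cell lines were grown in 96-well plates and treated with compound for 48 hours. GI50: concentration for 50% inhibition of growth. TGI: total growth inhibition.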

Columns and labels:
Assay in all cases: DTP human tumour cell line panel, 48 h
[1] = tested on: HS 578T breast
[2] = tested on: HOP-92 NSCLC
[3] = tested on: UACC-62 melanoma
[4] = tested on: K-562 leukemia
[5] = tested on: KM12 colon
[6] = tested on: ACHN renal
[7] = tested on: SNB-75 CNS
[8] = tested on: HCC-2998 colon
[9] = tested on: SK-MEL-28 melanoma
[10] = tested on: U251 CNS
[11] = tested on: UO-31 renal
[12] = tested on: NCI/ADR-RES ovarian
[13] = tested on: PC-3 prostate
[14] = tested on: HCT-15 colon
[15] = tested on: NCI-H226 lung
[16] = tested on: IGROV1 ovarian
[17] = tested on: MDA-MB-231 breast
[18] = tested on: OVCAR-8 ovarian
[19] = tested on: TK-10 renal
[20] = tested on: 786-0 renal
[21] = tested on: NCI-H460 lung
[22] = tested on: T-47D breast
[23] = tested on: SN12C renal
[24] = tested on: SF-295 CNS
[25] = tested on: RXF 393 renal
[26] = tested on: MCF7 breast
[27] = tested on: SK-MEL-5 melanoma
[28] = tested on: EKVX NSCLC
[29] = tested on: SW-620 colon
[30] = tested on: HOP-62 NSCLC
[31] = tested on: A498 renal
[32] = tested on: SK-MEL-2 melanoma
[33] = tested on: DU-145 prostate
[34] = tested on: OVCAR-5 ovarian
[35] = tested on: COLO 205 colon
[36] = tested on: NCI-H522 lung
[37] = tested on: A549 NSCLC
[38] = tested on: SR leukemia
[39] = tested on: CAKI-1 renal
[40] = tested on: HL-60(TB) leukemia
[41] = tested on: MALME-3M melanoma
[42] = tested on: UACC-257 melanoma
[43] = tested on: LOX IMVI melanoma
[44] = tested on: HT29 colon
[45] = tested on: CCRF-CEM leukemia
[46] = tested on: RPMI-8226 leukemia
[47] = tested on: HCT-116 colon
[48] = tested on: SF-539 CNS
[49] = tested on: OVCAR-4 ovarian
[50] = tested on: MOLT-4 leukemia
[51] = tested on: SF-268 CNS
[52] = tested on: MDA-MB-435
[53] = tested on: NCI-H23 lung
[54] = tested on: M14 melanoma
[55] = tested on: BT-549 breast
[56] = tested on: SNB-19 CNS
[57] = tested on: OVCAR-3 ovarian
[58] = tested on: SK-OV-3 ovarian

In the case of O=c1nc(Nc2ccc([N+](=O)[O-])cc2O)sc2ccccc12, the GI50 [1] is reported as 576 nM, the TGI [1] is reported as > 16.7 µM and the GI50 [2] is reported as 2300 nM. For the same compound, the TGI [2] was 15.9 µM, the GI50 [3] was 880 nM and the TGI [3] was > 16.7 µM. The GI50 [4] was 557 nM, the TGI [4] was > 16.7 µM and the GI50 [5] was 1040 nM. For the same compound, the TGI [5] was > 16.7 µM, the GI50 [6] was 2160 nM and the TGI [6] was > 16.7 µM. For the same compound, the GI50 [7] was 307 nM, the TGI [7] was 1200 nM and the GI50 [8] was 4.39 µM. The TGI [8] was > 16.7 µM, the GI50 [9] was 4.22 µM and the TGI [9] was > 16.7 µM. The GI50 [10] was 1060 nM, the TGI [10] was > 16.7 µM and the GI50 [11] was 853 nM. For the same compound, the TGI [11] was > 16.7 µM, the GI50 [12] was 532 nM and the TGI [12] was 4.47 µM. For the same compound, the GI50 [13] was 4.92 µM, the TGI [13] was > 16.7 µM and the GI50 [14] was 756 nM. For the same compound, the TGI [14] was > 16.7 µM, the GI50 [15] was 783 nM and the TGI [15] was > 16.7 µM. The GI50 [16] was 1110 nM, the TGI [16] was > 16.7 µM and the GI50 [17] was 7.41 µM. The TGI [17] was > 16.7 µM, the GI50 [18] was 3.83 µM and the TGI [18] was > 16.7 µM. For the same compound, the GI50 [19] was > 16.7 µM, the TGI [19] was > 16.7 µM and the GI50 [20] was 6.06 µM. The TGI [20] was > 16.7 µM, the GI50 [21] was 670 nM and the TGI [21] was > 16.7 µM. For the same compound, the GI50 [22] was 4.3 µM, the TGI [22] was > 16.7 µM and the GI50 [23] was 3.15 µM. For the same compound, the TGI [23] was > 16.7 µM, the GI50 [24] was 1110 nM and the TGI [24] was > 16.7 µM. For the same compound, the GI50 [25] was 437 nM, the TGI [25] was 2330 nM and the GI50 [26] was 637 nM. The TGI [26] was > 16.7 µM, the GI50 [27] was 858 nM and the TGI [27] was 5.41 µM. The GI50 [28] was 4.05 µM, the TGI [28] was > 16.7 µM and the GI50 [29] was 955 nM. The TGI [29] was > 16.7 µM, the GI50 [30] was 917 nM and the TGI [30] was > 16.7 µM. The GI50 [31] was 574 nM, the TGI [31] was 2300 nM and the GI50 [32] was 1180 nM. For the same compound, the TGI [32] was > 16.7 µM, the GI50 [33] was 5.61 µM and the TGI [33] was > 16.7 µM. The GI50 [34] was 9.42 µM, the TGI [34] was > 16.7 µM and the GI50 [35] was > 16.7 µM. The TGI [35] was > 16.7 µM, the GI50 [36] was 786 nM and the TGI [36] was 10.4 µM. The GI50 [37] was 4.58 µM, the TGI [37] was > 16.7 µM and the GI50 [38] was 462 nM. The TGI [38] was > 16.7 µM, the GI50 [39] was 659 nM and the TGI [39] was > 16.7 µM. The GI50 [40] was 662 nM, the TGI [40] was 3.69 µM and the GI50 [41] was 4.09 µM. For the same compound, the TGI [41] was > 16.7 µM, the GI50 [42] was 1660 nM and the TGI [42] was > 16.7 µM. The GI50 [43] was 1140 nM, the TGI [43] was > 16.7 µM and the GI50 [44] was > 16.7 µM. For the same compound, the TGI [44] was > 16.7 µM, the GI50 [45] was 4.47 µM and the TGI [45] was > 16.7 µM. The GI50 [46] was 737 nM, the TGI [46] was 10.8 µM and the GI50 [47] was 882 nM. The TGI [47] was > 16.7 µM, the GI50 [48] was 696 nM and the TGI [48] was 8.94 µM. The GI50 [49] was 4.4 µM, the TGI [49] was > 16.7 µM and the GI50 [50] was 3.73 µM. For the same compound, the TGI [50] was > 16.7 µM, the GI50 [51] was 1310 nM and the TGI [51] was > 16.7 µM. The GI50 [52] was 466 nM, the TGI [52] was > 16.7 µM and the GI50 [53] was 1100 nM. For the same compound, the TGI [53] was > 16.7 µM, the GI50 [54] was 648 nM and the TGI [54] was > 16.7 µM. For the same compound, the GI50 [55] was 885 nM, the TGI [55] was > 16.7 µM and the GI50 [56] was 949 nM. The TGI [56] was > 16.7 µM, the GI50 [57] was 719 nM and the TGI [57] was > 16.7 µM. For the same compound, the GI50 [58] was 1310 nM and the TGI [58] was > 16.7 µM.
